Results: US20060069132A1, “Azolecarboxamide herbicides” (priority 2004, published 2006)

Experiments:
wheat = assay: Test B postemergence herbicide test; format: in vivo, Triticum aestivum; parameters: key to Wheat plant response rating: 0 = no effect, 100 = complete control; settings: postemergence, visual rating, scale 0 (no effect) to 100 (complete control)
Procedure, shortened: (§1)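 After treating 2-leaf paddy plants or 2–18 cm postemergence plants (1 to 4 leaves) with formulated chemical, researchers kept them in a greenhouse for 13–15 days. Effects were judged visually versus controls: 0 indicates none, 100 total control.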

barnyardgrass = assay: Test B pre-/postemergence herbicide test; format: in vivo, Echinochloa crus-galli; settings: for Barnyardgrass plant response rating (0 to 100 scale) / Plant response rating, Barnyardgrass: 0 = no effect, 100 = complete control, preemergence; for Plant response rating, Barnyardgrass / Barnyardgrass plant response rating: visual rating; for Barnyardgrass plant response rating: postemergence, scale 0 (no effect) to 100 (complete control)
Procedure, shortened: (§2)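 Species tested were Echinochloa crus-galli, Ipomoea coccinea, Xanthium strumarium and Oryza sativa, treated both before emergence and at the 1- to 4-leaf stage; rice and barnyardgrass were also tested under flooding at 2 leaves. Greenhouse incubation lasted 13–15 days before visual 0–100 scoring.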

morningglory = assay: Test B pre-/postemergence herbicide test; format: in vivo, Ipomoea coccinea; settings: for Morningglory plant response rating (0 to 100 scale) / Plant response rating, Morningglory: 0 = no effect, 100 = complete control, preemergence; for Plant response rating, Morningglory / Morningglory plant response rating: visual rating; for Morningglory plant response rating: postemergence, scale 0 (no effect) to 100 (complete control)
Procedure, shortened: as §2

giant foxtail = assay: Test B pre-/postemergence herbicide test; format: in vivo, Setaria faberi; settings: for Foxtail, Giant plant response rating (0 to 100 scale) / Plant response rating, Foxtail, Giant: 0 = no effect, 100 = complete control, preemergence; for Plant response rating, Foxtail, Giant / Foxtail, Giant plant response rating: visual rating; for Foxtail, Giant plant response rating: postemergence, scale 0 (no effect) to 100 (complete control)
Procedure, shortened: (§3)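 Plants compared with untreated controls 13–15 days post-treatment and given a visual 0–100 injury score. Applications: preemergence to seeds; postemergence at 1- to 4-leaf (2–18 cm); paddy species flooded, 2-leaf stage. Vehicle non-phytotoxic, surfactant included.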

rice = assay: Test B flooded paddy test; format: in vivo, Oryza sativa; settings: 1000 g ai/ha, visual rating, scale 0 to 100 (0 no effect, 100 complete control), 13 to 15 days
Procedure, shortened: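 Formulated test chemicals went onto postemergence plants measuring 2 to 18 cm, at one to four leaves. For the paddy assay, species had reached two leaves. Scoring took place 13–15 days later by eye, relative to untreated plants, using 0 for no effect up to 100 for full control.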

velvetleaf = assay: Test B pre-/postemergence herbicide test; format: in vivo, Abutilon theophrasti; settings: for Velvetleaf plant response rating (0 to 100 scale) / Plant response rating, Velvetleaf: 0 = no effect, 100 = complete control, preemergence; for Plant response rating, Velvetleaf / Velvetleaf plant response rating: visual rating; for Velvetleaf plant response rating: postemergence, scale 0 (no effect) to 100 (complete control)
Procedure, shortened: as §3

blackgrass = assay: Test B postemergence herbicide test; format: in vivo, Alopecurus myosuroides; settings: postemergence, visual rating, scale 0 (no effect) to 100 (complete control)
Procedure, shortened: (§4)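 Plants grow to 1- to 4-leaf stage (2–18 cm) for postemergence spraying, or to 2-leaf stage for the paddy test. Formulated compound is applied. Greenhouse holding lasts 13–15 days. Response is scored visually relative to controls, 0 no effect to 100 complete control; a dash means no result.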

lambsquarters = assay: Test B pre-/postemergence herbicide test; format: in vivo, Chenopodium album; settings: for Lambsquarters plant response rating (0 to 100 scale) / Plant response rating, Lambsquarters: 0 = no effect, 100 = complete control, preemergence; for Plant response rating, Lambsquarters / Lambsquarters plant response rating: visual rating; for Lambsquarters plant response rating: postemergence, scale 0 (no effect) to 100 (complete control)
Procedure, shortened: as §3

[1] = system: small flower umbrella sedge; assay: Test B flooded paddy test; format: in vivo, Cyperus difformis; settings: 1000 g ai/ha, visual rating, scale 0 to 100 (0 no effect, 100 complete control), 13 to 15 days
Procedure, shortened: as §4

large crabgrass = assay: Test B pre-/postemergence herbicide test; format: in vivo, Digitaria sanguinalis; settings: for Crabgrass, Large plant response rating (0 to 100 scale) / Plant response rating, Crabgrass, Large: 0 = no effect, 100 = complete control, preemergence; for Plant response rating, Crabgrass, Large / Crabgrass, Large plant response rating: visual rating; for Crabgrass, Large plant response rating: postemergence, scale 0 (no effect) to 100 (complete control)
Procedure, shortened: as §3

ducksalad = assay: Test B flooded paddy test; format: in vivo, Heteranthera limosa; settings: 1000 g ai/ha, visual rating, scale 0 to 100 (0 no effect, 100 complete control), 13 to 15 days
Procedure, shortened: as §4

Surinam grass = assay: Test B pre-/postemergence herbicide test; format: in vivo, Urochloa decumbens; settings: for Surinam Grass plant response rating (0 to 100 scale) / Plant response rating, Surinam Grass: 0 = no effect, 100 = complete control, preemergence; for Plant response rating, Surinam Grass / Surinam Grass plant response rating: visual rating; for Surinam Grass plant response rating: postemergence, scale 0 (no effect) to 100 (complete control)
Procedure, shortened: as §3

wild oat = assay: Test B postemergence herbicide test; format: in vivo, Avena fatua; settings: postemergence, visual rating, scale 0 (no effect) to 100 (complete control)
Procedure, shortened: as §1

pigweed = assay: Test B pre-/postemergence herbicide test; format: in vivo, Amaranthus retroflexus; settings: for Pigweed plant response rating (0 to 100 scale) / Plant response rating, Pigweed: 0 = no effect, 100 = complete control, preemergence; for Plant response rating, Pigweed / Pigweed plant response rating: visual rating; for Pigweed plant response rating: postemergence, scale 0 (no effect) to 100 (complete control)
Procedure, shortened: as §3

corn = assay: Test B pre-/postemergence herbicide test; format: in vivo, Zea mays; settings: for Corn plant response rating (0 to 100 scale) / Plant response rating, Corn: 0 = no effect, 100 = complete control, preemergence; for Plant response rating, Corn / Corn plant response rating: visual rating; for Corn plant response rating: postemergence, scale 0 (no effect) to 100 (complete control)
Procedure, shortened: as §3

CCNC(=O)c1cccc(NC(=O)c2sc(C(C)(C)C)nc2CC)n1 [Compound 213]
30: Wheat plant response rating (wheat; 500 g ai/ha) | Morningglory plant response rating (morningglory; 500 g ai/ha) | Foxtail, Giant plant response rating (giant foxtail; 500 g ai/ha) | Lambsquarters plant response rating (0 to 100 scale) (lambsquarters; 125 g ai/ha) | Crabgrass, Large plant response rating (large crabgrass; 500 g ai/ha) | Pigweed plant response rating (0 to 100 scale) (pigweed; 125 g ai/ha)
40: Rice plant response rating (rice) | Blackgrass plant response rating (blackgrass; 500 g ai/ha) | Lambsquarters plant response rating (lambsquarters; 500 g ai/ha) | Plant response rating, Surinam Grass (Surinam grass; 500 g ai/ha)
60: Velvetleaf plant response rating (velvetleaf; 500 g ai/ha)
50: Barnyardgrass plant response rating (barnyardgrass; 500 g ai/ha)
20: Plant response rating, Morningglory (morningglory; 500 g ai/ha) | Foxtail, Giant plant response rating (0 to 100 scale) (giant foxtail; 125 g ai/ha) | Blackgrass plant response rating (blackgrass; 125 g ai/ha) | Surinam Grass plant response rating (Surinam grass; 500 g ai/ha) | Oat, Wild plant response rating (wild oat; 500 g ai/ha) | Pigweed plant response rating (pigweed; 500 g ai/ha) | Corn plant response rating (corn; 500 g ai/ha)
90: Plant response rating, Foxtail, Giant (giant foxtail; 500 g ai/ha)
100: Plant response rating, Lambsquarters (lambsquarters; 500 g ai/ha) | Plant response rating, Pigweed (pigweed; 500 g ai/ha)
80: Plant response rating, Barnyardgrass (barnyardgrass; 500 g ai/ha) | Plant response rating, Velvetleaf (velvetleaf; 500 g ai/ha) | Sedge, Umbrella plant response rating [1]
0: Wheat plant response rating (wheat; 125 g ai/ha) | Barnyardgrass plant response rating (barnyardgrass; 125 g ai/ha) | Morningglory plant response rating (0 to 100 scale) (morningglory; 125 g ai/ha) | Foxtail, Giant plant response rating (giant foxtail; 125 g ai/ha) | Velvetleaf plant response rating (0 to 100 scale) (velvetleaf; 125 g ai/ha) | Velvetleaf plant response rating (velvetleaf; 125 g ai/ha) | Lambsquarters plant response rating (lambsquarters; 125 g ai/ha) | Crabgrass, Large plant response rating (large crabgrass; 125 g ai/ha) | Surinam Grass plant response rating (0 to 100 scale) (Surinam grass; 125 g ai/ha) | Pigweed plant response rating (pigweed; 125 g ai/ha) | Corn plant response rating (0 to 100 scale) (corn; 125 g ai/ha) | Corn plant response rating (corn; 125 g ai/ha)
10: Barnyardgrass plant response rating (0 to 100 scale) (barnyardgrass; 125 g ai/ha) | Morningglory plant response rating (morningglory; 125 g ai/ha) | Crabgrass, Large plant response rating (0 to 100 scale) (large crabgrass; 125 g ai/ha) | Surinam Grass plant response rating (Surinam grass; 125 g ai/ha) | Oat, Wild plant response rating (wild oat; 125 g ai/ha) | Plant response rating, Corn (corn; 500 g ai/ha)
70: Plant response rating, Crabgrass, Large (large crabgrass; 500 g ai/ha) | Ducksalad plant response rating (ducksalad)

CCc1nn(C(C)(C)C)cc1C(=O)Nc1cc(C(=O)N(CC)CC)ccc1F [Compound 223]
60: Lambsquarters plant response rating (lambsquarters; 125 g ai/ha) | Pigweed plant response rating (pigweed; 125 g ai/ha)
90: Ducksalad plant response rating (ducksalad) | Plant response rating, Surinam Grass (Surinam grass; 500 g ai/ha) | Pigweed plant response rating (0 to 100 scale) (pigweed; 125 g ai/ha)
40: Morningglory plant response rating (morningglory; 125 g ai/ha)
100: Plant response rating, Velvetleaf (velvetleaf; 500 g ai/ha) | Plant response rating, Lambsquarters (lambsquarters; 500 g ai/ha) | Plant response rating, Crabgrass, Large (large crabgrass; 500 g ai/ha) | Plant response rating, Pigweed (pigweed; 500 g ai/ha)
30: Plant response rating, Morningglory (morningglory; 500 g ai/ha) | Velvetleaf plant response rating (0 to 100 scale) (velvetleaf; 125 g ai/ha) | Oat, Wild plant response rating (wild oat; 500 g ai/ha)
20: Barnyardgrass plant response rating (0 to 100 scale) (barnyardgrass; 125 g ai/ha) | Barnyardgrass plant response rating (barnyardgrass; 500 g ai/ha) | Foxtail, Giant plant response rating (giant foxtail; 500 g ai/ha) | Velvetleaf plant response rating (velvetleaf; 125 g ai/ha) | Velvetleaf plant response rating (velvetleaf; 500 g ai/ha) | Crabgrass, Large plant response rating (large crabgrass; 500 g ai/ha) | Surinam Grass plant response rating (0 to 100 scale) (Surinam grass; 125 g ai/ha) | Corn plant response rating (corn; 500 g ai/ha)
50: Crabgrass, Large plant response rating (0 to 100 scale) (large crabgrass; 125 g ai/ha)
80: Plant response rating, Barnyardgrass (barnyardgrass; 500 g ai/ha) | Morningglory plant response rating (morningglory; 500 g ai/ha) | Plant response rating, Foxtail, Giant (giant foxtail; 500 g ai/ha) | Lambsquarters plant response rating (0 to 100 scale) (lambsquarters; 125 g ai/ha) | Lambsquarters plant response rating (lambsquarters; 500 g ai/ha) | Sedge, Umbrella plant response rating [1] | Plant response rating, Corn (corn; 500 g ai/ha)
70: Rice plant response rating (rice) | Pigweed plant response rating (pigweed; 500 g ai/ha)
10: Barnyardgrass plant response rating (barnyardgrass; 125 g ai/ha) | Morningglory plant response rating (0 to 100 scale) (morningglory; 125 g ai/ha) | Foxtail, Giant plant response rating (0 to 100 scale) (giant foxtail; 125 g ai/ha) | Foxtail, Giant plant response rating (giant foxtail; 125 g ai/ha) | Crabgrass, Large plant response rating (large crabgrass; 125 g ai/ha) | Surinam Grass plant response rating (Surinam grass; 125 g ai/ha) | Surinam Grass plant response rating (Surinam grass; 500 g ai/ha) | Corn plant response rating (0 to 100 scale) (corn; 125 g ai/ha) | Corn plant response rating (corn; 125 g ai/ha)
0: Wheat plant response rating (wheat; 125 g ai/ha) | Wheat plant response rating (wheat; 500 g ai/ha) | Blackgrass plant response rating (blackgrass; 125 g ai/ha) | Blackgrass plant response rating (blackgrass; 500 g ai/ha) | Oat, Wild plant response rating (wild oat; 125 g ai/ha)
